Measurements as given in the supplement of paper PMC11061612.

Assays:
Experiment in all cases: combination Emax (second highest fraction inhibited in the dose matrix, 72 h); higher = more inhibition; extreme values may be limits of the assay
[1] = test system: SW620 (Colorectal Carcinoma)
In short: (§1)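 Cell lines in DMEM/F12 or RPMI with 10% FBS were plated in 1536-well plates, held 24 hours at 37°C, 5% CO2, then given two-drug dose matrices for 72 hours (DMSO typically 0.2%). Viability was read by CellTiter-Glo 2.0 luminescence and scaled as inhibition from 0 (vehicle wells) to 1 (blank wells). Combination Emax is the second-highest inhibition in the matrix; Bliss excess is observed combination effect minus expected EA + EB − EA·EB, EA and EB being single-agent effects.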

NB13 (Neuroblastoma) = test system: NB13 (Neuroblastoma)
In short: as §1

PEO1 (Ovarian Carcinoma) = test system: PEO1 (Ovarian Carcinoma)
In short: as §1

[2] = test system: LU-165 (Small Cell Lung Carcinoma)
In short: as §1

[3] = test system: HCC1395 (Breast Carcinoma)
In short: as §1

769-P (Kidney Carcinoma) = test system: 769-P (Kidney Carcinoma)
In short: as §1

[4] = test system: NCI-H441 (Lung Adenocarcinoma)
In short: as §1

[5] = test system: MDA-MB-436 (Breast Carcinoma)
In short: as §1

[6] = test system: UACC-812 (Breast Carcinoma)
In short: as §1

KP-N-YN (Neuroblastoma) = test system: KP-N-YN (Neuroblastoma)
In short: as §1

EW-7 (Ewing's Sarcoma) = test system: EW-7 (Ewing's Sarcoma)
In short: as §1

[7] = test system: JHU-022 (Oral Cavity Carcinoma)
In short: as §1

WM1552C (Melanoma) = test system: WM1552C (Melanoma)
In short: as §1

[8] = test system: JHH-2 (Hepatocellular Carcinoma)
In short: as §1

[9] = test system: HT55 (Colorectal Carcinoma)
In short: as §1

[10] = test system: LS-411N (Colorectal Carcinoma)
In short: as §1

[11] = test system: GCT (Other Solid Carcinomas)
In short: as §1

[12] = test system: DMS-53 (Small Cell Lung Carcinoma)
In short: as §1

[13] = test system: A253 (Head and Neck Carcinoma)
In short: as §1

| SMILES | combination Emax [1] | combination Emax (NB13 (Neuroblastoma)) | combination Emax (PEO1 (Ovarian Carcinoma)) | combination Emax [2] | combination Emax [3] | combination Emax (769-P (Kidney Carcinoma)) | combination Emax [4] | combination Emax [5] | combination Emax [6] | combination Emax (KP-N-YN (Neuroblastoma)) | combination Emax (EW-7 (Ewing's Sarcoma)) | combination Emax [7] | combination Emax (WM1552C (Melanoma)) | combination Emax [8] | combination Emax [9] | combination Emax [10] | combination Emax [11] | combination Emax [12] | combination Emax [13] |
| --- | --- | --- | --- | --- | --- | --- | --- | --- | --- | --- | --- | --- | --- | --- | --- | --- | --- | --- | --- |
| Cc1c2c(nn1C)CSCc1cc(n(C)n1)CSc1cc(c3ccccc3c1)OCCCc1c(C(=O)O)n(C)c3c-2c(Cl)ccc13 [AZD5991] + CS(=O)(=O)CCNCc1ccc(-c2ccc3ncnc(Nc4ccc(OCc5cccc(F)c5)c(Cl)c4)c3c2)o1 [Lapatinib] (first compound max 1 µM, 7x7, partner max 10 µM) | 0.207 | 0.527 | 0.442 | 0.225 | 0.94 | 0.917 | 0.229 | 0.274 | 0.929 | 0.374 | 0.666 | 0.705 | 0.693 | 0.446 | – | – | – | – | – |
| CCc1c2c(nc3ccc(O)cc13)-c1cc3c(c(=O)n1C2)COC(=O)[C@]3(O)CC [SN-38] + O=C(c1cc(Cc2n[nH]c(=O)c3ccccc23)ccc1F)N1CCN(C(=O)C2CC2)CC1 [Olaparib] (first compound max 0.3 µM, 7x7, partner max 10 µM) | 0.822 | 0.832 | 0.725 | 0.478 | 0.518 | 0.734 | 0.709 | 0.546 | 0.504 | 0.491 | 0.908 | 0.764 | 0.609 | 0.618 | 0.489 | 0.304 | 0.753 | 0.735 | 0.938 |
| C[C@@H](Nc1cc(F)cc(F)c1)c1cc(C(=O)N(C)C)cc2c(=O)cc(N3CCOCC3)oc12 [AZD8186] + CC(=O)c1c(C)c2cnc(Nc3ccc(N4CCNCC4)cn3)nc2n(C2CCCC2)c1=O [Palbociclib] (first compound max 10 µM, 7x7, partner max 10 µM) | 0.481 | – | 0.454 | 0.31 | 0.382 | 0.755 | 0.447 | 0.472 | 0.389 | 0.433 | 0.509 | 0.512 | 0.352 | 0.693 | – | – | – | – | – |
| O=C(c1cc(Cc2n[nH]c(=O)c3ccccc23)ccc1F)N1CCN(C(=O)C2CC2)CC1 [Olaparib] + CC1(C)CCC(CN2CCN(c3ccc(C(=O)NS(=O)(=O)c4ccc(NCC5CCOCC5)c([N+](=O)[O-])c4)c(Oc4cnc5[nH]ccc5c4)c3)CC2)=C(c2ccc(Cl)cc2)C1 [Venetoclax] (first compound max 10 µM, 7x7, partner max 1 µM) | 0.182 | – | 0.146 | 0.207 | 0.242 | 0.284 | 0.113 | 0.277 | 0.243 | 0.728 | 0.786 | 0.174 | 0.319 | 0.114 | – | – | – | – | – |
| C[C@@H](Nc1cc(F)cc(F)c1)c1cc(C(=O)N(C)C)cc2c(=O)cc(N3CCOCC3)oc12 [AZD8186] + C1CN(CCC1(C(=O)N[C@@H](CCO)C2=CC=C(C=C2)Cl)N)C3=NC=NC4=C3C=CN4 [AZD5363] (first compound max 10 µM, 7x7, partner max 10 µM) | 0.24 | – | 0.351 | 0.375 | 0.414 | 0.338 | 0.28 | 0.449 | 0.333 | 0.257 | 0.678 | 0.494 | 0.339 | 0.716 | – | – | – | – | – |
| Cc1nc(-c2cn3c(n2)-c2ccc(-c4cnn(C(C)(C)C(N)=O)c4)cc2OCC3)n(C(C)C)n1 [Taselisib] + O=C(Nc1ccc2[nH]nc(-c3ccncc3)c2c1)[C@@H]1CCN(CC(=O)N2CCN(c3ccc(-c4ncccn4)cc3)CC2)C1 [SCH772984] (first compound max 10 µM, 7x7, partner max 5 µM) | 0.764 | 0.424 | 0.818 | 0.475 | 0.606 | 0.809 | 0.562 | 0.469 | 0.428 | 0.553 | 0.999 | 0.769 | 0.813 | 0.971 | – | – | – | – | – |
| C[C@@H](Oc1cc(-c2cnn(C3CCNCC3)c2)cnc1N)c1c(Cl)ccc(F)c1Cl [Crizotinib] + Cn1cnc2c(F)c(Nc3ccc(Br)cc3Cl)c(C(=O)NOCCO)cc21 [Selumetinib] (first compound max 10 µM, 7x7, partner max 10 µM) | 0.861 | 0.804 | 0.297 | 0.279 | 0.491 | 0.875 | 0.415 | 0.292 | 0.154 | 0.607 | 0.929 | 0.496 | 0.864 | 0.598 | – | – | – | – | – |
